# Results as given in patent US11524966B1 (Valo Early Discovery, Inc., priority 2017, dated 2022).
# Target: T1, USP28 (USP28-5(1-1077)-TEV-6*His; LifeSensors) (Homo sapiens, UniProt Q96RU2)
# T1 construct: construct USP28 (USP28-5(1-1077)-TEV-6*His; LifeSensors); TEV cleavage site (C); 6xHis (C); purchased LifeSensors
# T1 sequence (Q96RU2 1-1077): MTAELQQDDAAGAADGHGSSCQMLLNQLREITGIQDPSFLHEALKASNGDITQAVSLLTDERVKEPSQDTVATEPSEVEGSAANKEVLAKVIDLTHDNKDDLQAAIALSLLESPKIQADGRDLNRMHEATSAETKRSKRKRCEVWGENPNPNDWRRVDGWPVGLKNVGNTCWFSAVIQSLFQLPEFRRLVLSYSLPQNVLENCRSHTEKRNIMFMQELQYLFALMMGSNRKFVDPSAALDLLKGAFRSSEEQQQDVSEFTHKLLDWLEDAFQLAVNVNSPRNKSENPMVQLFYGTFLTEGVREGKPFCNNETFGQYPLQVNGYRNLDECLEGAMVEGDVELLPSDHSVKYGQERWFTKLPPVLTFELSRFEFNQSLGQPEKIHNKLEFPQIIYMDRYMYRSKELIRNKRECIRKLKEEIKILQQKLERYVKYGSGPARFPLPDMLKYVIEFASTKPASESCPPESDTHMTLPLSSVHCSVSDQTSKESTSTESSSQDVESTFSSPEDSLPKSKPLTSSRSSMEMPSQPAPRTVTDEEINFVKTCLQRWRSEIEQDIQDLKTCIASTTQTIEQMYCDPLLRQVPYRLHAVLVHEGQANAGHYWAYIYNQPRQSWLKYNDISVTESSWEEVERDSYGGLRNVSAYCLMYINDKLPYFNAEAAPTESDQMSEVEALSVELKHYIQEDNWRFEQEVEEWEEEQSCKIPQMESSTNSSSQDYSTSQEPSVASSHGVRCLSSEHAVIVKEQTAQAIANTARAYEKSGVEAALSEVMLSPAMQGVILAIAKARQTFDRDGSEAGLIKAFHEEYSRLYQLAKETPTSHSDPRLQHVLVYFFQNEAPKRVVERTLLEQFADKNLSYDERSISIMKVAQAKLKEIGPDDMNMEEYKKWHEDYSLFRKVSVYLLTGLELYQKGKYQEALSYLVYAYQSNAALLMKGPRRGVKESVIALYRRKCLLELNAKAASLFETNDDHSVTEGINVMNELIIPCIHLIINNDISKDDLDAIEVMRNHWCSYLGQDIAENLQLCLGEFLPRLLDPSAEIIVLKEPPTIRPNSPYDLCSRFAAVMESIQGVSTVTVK
# Assay: Ubiquitin-Rhodamine 110 Assay for USP28 Activity, Example A-1(b)
# Format: biochemical
# Details: Ub-Rh110 assay, Example A-1(b)
# Procedure: Example A-1(b): Biochemical Assay: Ubiquitin-Rhodamine 110 Assay for USP28 Activity
# Each assay was performed in a final volume of 20 μL in assay buffer containing 20 mM Tris-HCl (pH 8.0, (1M Tris-HCl, pH 8.0 solution; Corning 46-031-CM)), 2 mM CaCl2) (1M Calcium Chloride solution; Sigma #21114) 2 mM BME (2-Mercaptoethanol; Sigma 63689-25ML-F), 0.01% Prionex ([…] filtered, Sigma #G-0411), and 0.01% Triton X-100. Stock compound solutions were stored at −20° C. as 10 mM in DMSO. Up to 1 month prior to the assay, 2 mM test compounds were pre-dispensed into assay plates (Black, low volume; Corning #3820) and frozen at −20° C. Prestamped assay plates were allowed to come to room temperature on the day of the assay. For the screen, 100 nL of 2 mM was pre-dispensed for a final screening concentration of 10 μM (DMSO(fc)=0.5%). […] Plates were incubated stacked for 90 minutes at room temperature before fluorescence was read on the Envision (Excitation at 485 nm and Emission at 535 nm; Perkin Elmer) or on the PheraSTAR (Excitation at 485 nm and Emission at 535 nm; BMG Labtech).
# For follow-up studies, each assay was performed in a final volume of 15 μL in assay buffer containing 20 mM Tris-HCl (pH 8.0, (1M Tris-HCl, pH 8.0 solution; Corning 46-031-CM)), 3 mM BME (2-Mercaptoethanol; Sigma 63689-25ML-F), 0.03% BGG (0.22 μM filtered, Sigma, G7516-25G), and 0.01% Triton X-100 (Sigma, T9284-10L). Nanoliter quantities of either an 8-point or 10-point, 3-fold serial dilution in DMSO was pre-dispensed into assay plates (Perkin Elmer, ProxiPlate-384 F Plus, #) for a final test concentration of either 25 μM to 11 nM or 25 μM to 1.3 nM, respectively. Enzyme USP28, construct USP28 (USP28-5(1-1077)-TEV-6*His; LifeSensors) concentration and incubation times were optimized for the maximal signal-to-background while maintaining initial velocity conditions at a fixed substrate concentration. The final concentration of the enzyme in the assay was 75 pM. Final substrate (Ub-Rh110; Ubiquitin-Rhodamine 110, R&D Systems #U-555) concentration was 25 nM with [Ub-Rh110]<<Km. 5 μL of 2× enzyme was added to assay plates (pre-stamped with compound) preincubated with USP28 for 30 minutes and then 5 μL of 2×Ub-Rh110 was added to assay plates. Plates were incubated stacked for 20 minutes at room temperature before 5 μL of stop solution was added (final concentration of 10 mM citric acid (Sigma, 251275-500G)). Fluorescence was read on the Envision (Excitation at 485 nm and Emission at 535 nm; Perkin Elmer) or on the PheraSTAR (Excitation at 485 nm and Emission at 535 nm; BMG Labtech).
# For assay formats Example A-1(a), A-1(b), and A-2, data were reported as percent inhibition compared with control wells based on the following equation: % inh=1−((FLU−AveLow)/(AveHigh−AveLow)) where FLU=measured Fluorescence, AveLow=average Fluorescence of no enzyme control (n=16), and AveHigh=average Fluorescence of DMSO control (n=16). IC50 values were determined by curve fitting of the standard 4 parameter logistic fitting algorithm included in the Activity Base software package: IDBS XE Designer Model 205. Data is fitted using the Levenburg Marquardt algorithm.
row,Structure (SMILES),USP28 A-1(b) IC50 range
1,"Cc1nc2sc(C(=O)N[C@H]3COc4cc(N5CCNCC5)ccc4C3)c(N)c2cc1F (single isomer, unassigned) [Example 1-15]",+++ (0.05-0.2 μM)
2,Cc1nc2sc(C(=O)N[C@H]3COc4cc(N5CC6CCCC(C5)N6)ccc4C3)c(N)c2s1 [Example 2-27],++ (0.2-2 μM)
3,"Cc1ccc2c(N)c(C(=O)N[C@H]3COc4cc(N5CCNCC5)ccc4C3)sc2n1 (single isomer, unassigned) [Example 1-1]",+++ (0.05-0.2 μM)
4,"Cc1nc2sc(C(=O)N[C@@H]3COc4cc(N5CCNCC5)ccc4C3)c(N)c2cc1F (single isomer, unassigned) [Example 1-16]",+ (>2 μM)
5,"Cc1ccc2c(N)c(C(=O)N[C@H]3COc4cc(N5CCN[C@@H](C)C5)ccc4C3)sc2n1 [Example 2-8, 3-amino-6-methyl-N-((R)-7-((S)-3-methylpiperazin-1-yl)chroman-3-yl)thieno[2,3-b]pyridine-2-carboxamide]",++ (0.2-2 μM)
6,"Cc1ccc2c(N)c(C(=O)N[C@H]3COc4cc(N5CCC[C@@](N)(C(F)(F)F)C5)ccc4C3)sc2n1 (single isomer, unassigned) [Example 3-3]",++++ (0.001-0.05 μM)
7,"Cc1ccc2c(N)c(C(=O)N[C@H]3COc4cc(N5CCNC[C@H]5C)ccc4C3)sc2n1 [Example 2-5, 3-amino-6-methyl-N-((R)-7-((R)-2-methylpiperazin-1-yl)chroman-3-yl)thieno[2,3-b]pyridine-2-carboxamide]",++++ (0.001-0.05 μM)
8,"CCn1ccc2cc(C(=O)N[C@@H]3COc4cc(N5CC6CCC(C5)N6)ccc4C3)cnc21 (single isomer, unassigned) [Example 1-27]",+ (>2 μM)
9,"O=C(N[C@H]1COc2cc(N3CC4CCC(C3)N4)ccc2C1)c1ccc(NCc2ccccc2)nc1 [Example 2-25, N-((3R)-7-(3,8-diazabicyclo[3.2.1]octan-3-yl)chroman-3-yl)-6-(benzylamino)nicotinamide]",++ (0.2-2 μM)
10,"Cc1ccc2c(N)c(C(=O)N[C@@H]3COc4cc(N5CC6CCC(C5)N6)ccc4C3)sc2n1 (single isomer, unassigned) [Example 1-4]",++ (0.2-2 μM)
11,"Cc1ccc2c(N)c(C(=O)N[C@H]3COc4cc(N5CCNCC5)c(F)cc4C3)sc2n1 [Example 1-35, (R)-3-amino-N-(6-fluoro-7-(piperazin-1-yl)chroman-3-yl)-6-methylthieno[2,3-b]pyridine-2-carboxamide]",+++ (0.05-0.2 μM)
12,"Cc1cnc2c(N)c(C(=O)N[C@@H]3COc4cc(N5CCNCC5)ccc4C3)sc2n1 (single isomer, unassigned) [Example 1-22]",+ (>2 μM)
13,"Cc1ccc2c(N)c(C(=O)N[C@H]3COc4cc(N5CCNCC5)c(OC(F)(F)F)cc4C3)sc2n1 (single isomer, unassigned) [Example 1-31]",+ (>2 μM)
14,"Cc1nc2sc(C(=O)N[C@@H]3COc4cc(N5CCNCC5)ccc4C3)c(N)c2s1 [Example 1-26, (S)-6-amino-2-methyl-N-(7-(piperazin-1-yl)chroman-3-yl)thieno[2,3-d]thiazole-5-carboxamide]",+ (>2 μM)
15,"Cc1ccc2c(N)c(C(=O)N[C@@H]3COc4cc(N5CCN[C@H](C)[C@H]5C)ccc4C3)sc2n1 (single isomer, unassigned) [Example 1-12]",++++ (0.001-0.05 μM)
16,"CCn1ccc2cc(C(=O)N[C@H]3COc4cc(N5CC6CCC(C5)N6)ccc4C3)cnc21 (single isomer, unassigned) [Example 1-28]",+++ (0.05-0.2 μM)
17,"Cc1cnc2c(N)c(C(=O)N[C@H]3COc4cc(N5CC6CC(C5)N6)ccc4C3)sc2n1 [Example 2-11, N-((3R)-7-(3,6-diazabicyclo[3.1.1]heptan-3-yl)chroman-3-yl)-7-amino-3-methylthieno[2,3-b]pyrazine-6-carboxamide]",++ (0.2-2 μM)
18,"Cc1cnc2c(N)c(C(=O)N[C@H]3COc4cc(N5CCNCC5)ccc4C3)sc2n1 (single isomer, unassigned) [Example 1-21]",++ (0.2-2 μM)
19,"Cc1nc2sc(C(=O)N[C@H]3COc4cc(N5CCNCC5)cc(F)c4C3)c(N)c2s1 (single isomer, unassigned) [Example 1-37]",+ (>2 μM)
20,"Cc1nc2sc(C(=O)N[C@H]3COc4cc(N5CC6CCC(C5)N6)ccc4C3)c(N)c2s1 [Example 1-23, N-((3R)-7-(3,8-diazabicyclo[3.2.1]octan-3-yl)chroman-3-yl)-6-amino-2-methylthieno[2,3-d]thiazole-5-carboxamide]",++ (0.2-2 μM)
21,"Nc1c(C(=O)N[C@@H]2COc3cc(N4CC5CCC(C4)N5)ccc3C2)sc2ncc(F)cc12 (single isomer, unassigned) [Example 1-18]",+ (>2 μM)
22,"Cc1ccc2c(N)c(C(=O)N[C@H]3COc4cc(N5CCN[C@@H](C)[C@@H]5C)ccc4C3)sc2n1 (single isomer, unassigned) [Example 1-13]",++ (0.2-2 μM)
23,"Cc1ccc2c(N)c(C(=O)N[C@@H]3COc4c(ccc(N5CCNCC5)c4F)C3)sc2n1 [Example 1-34, (S)-3-amino-N-(8-fluoro-7-(piperazin-1-yl)chroman-3-yl)-6-methylthieno[2,3-b]pyridine-2-carboxamide]",+ (>2 μM)
24,"Cc1ccc2c(N)c(C(=O)N[C@H]3COc4cc(N5CCCC56CNC6)ccc4C3)sc2n1 [Example 2-7, (R)-N-(7-(2,5-diazaspiro[3.4]octan-5-yl)chroman-3-yl)-3-amino-6-methylthieno[2,3-b]pyridine-2-carboxamide]",+++ (0.05-0.2 μM)
